Experimental data reported in patent EP4793292A1, “POLYPEPTIDE DERIVATIVE, PHARMACEUTICAL COMPOSITION THEREOF AND USE THEREOF” (Biocells (Beijing) Biotech Co., Ltd., priority 2023, dated 2025).
Starred links: 1 amine or outer side, 2 acyl side, 3 side chain; linkers in the order of their positions; H or OH if unused. Non-standard residues stand in square brackets, D forms with d. Residues, ends and D or L forms follow the SMILES beside them. Groups on a side chain read outwards from the residue. No end group written: not given here. *: point of attachment. C18 diacid = O=C(O)CCCCCCCCCCCCCCCCC(=O)*; γGlu = O=C(O)[C@H](CCC(=O)[*:2])N[*:1]; Palmitoyl = CCCCCCCCCCCCCCCC(=O)*; AEEA = NCCOCCOCC(=O)O

Experiments:
[1] = Body weight of rats after spinal cord injury (SCI) surgery; assay type: in vivo; conditions: 1 mg/kg subcutaneous daily, female SD rats, FIG. 2
Method: (§1) Female SD rats (250-270 g) were randomly grouped after being weighed. After the dorsal T10 segment lamina of the rats was removed, spinal cord contusion was performed on rats in each spinal cord injury (SCI) surgery group, while for rats in the sham operation (sham) group, only the T10 segment lamina was removed without contusion. Rats with a BBB locomotor score > 1 on day 1 after spinal cord injury surgery were excluded, and the remaining rats were randomly grouped and subcutaneously injected daily with: equal volume of physiological saline (vehicle control), PW5 (1 mg/kg), and PW337 (1, 2, 4 mg/kg); rats in the sham operation group were not injected. The body weight of the rats was measured weekly after spinal cord injury surgery, and BBB scoring and open field activity tests were performed.

[2] = tested on: rats with chronic spinal cord injury; assay: BBB locomotor scoring in rats with chronic spinal cord injury; assay type: in vivo; conditions: 2 mg/kg subcutaneous daily; days 1-14 after surgery (acute and subacute phase), FIG. 4
Method: as §1, with “(2” for “(1”, “(2” for “(1, 2, 4”, “BBB scoring” for “The body weight of the rats”, “performed” for “measured”, “surgery.” for “surgery, and BBB scoring and open field activity tests were performed.”

[3] = Determination of the half-life of polypeptides in rats (plasma LC-MS/MS); assay type: in vivo; design: AUClast (0-120 min): unit not given here; conditions: male SD rats, intravenous 4 mg/kg; for 30 min blood drug concentration / level at 0.5 h: 30 min after injection; for half-life / level at 0.5 h: rat, plasma; for level at 0.5 h: read-out: 30 min blood drug concentration
Method: Plasma sample collection method: 2 male SD rats (280-300 g) were intravenously injected with PW5, PW6, PW182, and PW337 respectively, the pure peptide dose was 4 mg/kg, and the dosing volume was 2 mL/kg. At 0.5 min, 2 min, 5 min, 10 min, 15 min, 30 min, 60 min, and 120 min after intravenous injection of the drug via the tail vein, blood (400 µL/time) was collected through an indwelling jugular vein catheter into anticoagulant tubes containing EDTA-K2, and 100x protease inhibitor (1:50, v:v; Roche, 11873580001) was added. Whole blood samples were placed on ice and centrifuged (3200 g, 4°C, 10 min) within 1 hour after blood collection. Plasma was taken into a pre-cooled centrifuge tube, protease inhibitor (1:50, v:v) was added again, mixed homogeneously, and stored at -80°C.
Plasma sample processing method: Plasma samples were pipetted into a 96-well plate (50 µL/well), pure methanol (300 µL/well) was added, and mixed by vortexing (1500 rpm, 10 min). Centrifuged (4800 g, 4°C, 10 min), the supernatant was taken into a new 96-well plate (100 µL/well), a 20% aqueous methanol solution containing 0.2% formic acid (100 µL/well) was added, and mixed by vortexing (1500 rpm, 3 min). 10.0 µL was injected for LC-MS/MS analysis to obtain the drug concentration in the samples. Instrument model: (Waters TQ-XS) Chromatographic column: SHIMADZU Shim-Pack Scepter Claris C4-300 (2.1×50 mm, 1.9 µm) Detection results: Table 3. Half-life, blood drug concentration, and AUC data of the conjugates

SH-SY5Y cells = assay: Axonal growth of RA-differentiated SH-SY5Y cells on proteoglycan (ACAN) coating; assay type: cell-based, human; conditions: PW polypeptide 2.5 µM, 72 h, proteoglycan (ACAN)-coated plate, FIG. 1
Method: Therefore, RA-induced differentiated SH-SY5Y can be used to simulate neuronal axonal growth in vitro and to test the effects of PW polypeptides on axonal growth.
Preparation of culture medium for SH-SY5Y: 1) DMEM/F12 + 10% FBS + 1 × penicillin-streptomycin + 1 mM sodium pyruvate; 2) DMEM/F12 + 1% FBS + 1 × penicillin-streptomycin + 1 mM sodium pyruvate. Preparation of 50 mM retinoic acid stock solution: 15.02 mg of retinoic acid was weighed and dissolved in 1 mL of dimethyl sulfoxide (DMSO), aliquoted, and frozen at -80°C. Proteoglycan (ACAN/CSPG1) is a type of chondroitin sulfate proteoglycan (CSPG). Preparation of 1 mg/mL proteoglycan stock solution: 1 mg of ACAN solid was dissolved in 1 mL of distilled water, aliquoted, and frozen at -80°C. Preparation of PW polypeptide solution for cells (1 mM): the corresponding mass of polypeptide powder was weighed, dissolved in PBS and filtered through a 0.2 µm filter membrane, aliquoted, and frozen at -20°C.
The 1 mg/mL proteoglycan was diluted to 250 µg/mL with distilled water to coat a 24-well cell culture plate: each well was coated with 3 droplets of ACAN, 2 µL per droplet. Using the culture medium containing 10% FBS, SH-SY5Y cells were seeded in the proteoglycan-coated 24-well plate (20,000 cells/well) and incubated (37°C, 5% CO2) for 20 h. The medium was replaced with a culture medium containing 1% FBS, and PW polypeptide (2.5 µM) or an equal volume of PBS solution was added. After incubation for 72 h, the cells were fixed with 4% paraformaldehyde (room temperature, 30 min), and cell morphology was photographed and recorded using a 10× optical microscope. 20-30 cells were randomly selected under each field of view, and axonal length was measured using Image J-SNT.
Data analysis: All measured axonal lengths within each proteoglycan-coated range were averaged to serve as one data point. One-way analysis of variance and Tukey's test were used to compare the differences between groups. P<0.05 was considered as a significant difference.

Compound | body weight recovery compared with rats in the spinal cord injury (SCI) group [1] | BBB scores, differences among SCI, PW5 and PW337 groups [2] | AUClast (0-120 min) [3] | 30 min blood drug concentration [3] [ng/mL] | half-life [3] [min] | level at 0.5 h [3] [µg/mL] | effect of promoting axonal growth compared with the scrambled polypeptide (Scr, negative control) (SH-SY5Y cells) | promoting effect on axonal growth compared with PW6 (SH-SY5Y cells)
CC[C@H](C)[C@H](NC(=O)[C@H](CO)NC(=O)[C@H](CCC(=O)O)NC(=O)[C@H](Cc1ccc(O)cc1)NC(=O)[C@H](CCC(=O)O)NC(=O)[C@H](CCC(N)=O)NC(=O)[C@H](CO)NC(=O)[C@H](CC(C)C)NC(=O)[C@H](CCCCN)NC(=O)[C@H](CC(C)C)NC(=O)[C@H](CO)NC(=O)[C@H](CC(=O)O)NC(=O)[C@H](CC(N)=O)NC(=O)[C@H](C)NC(=O)[C@H](CCCCN)NC(=O)[C@H](CC(C)C)NC(=O)[C@H](CCCNC(=N)N)NC(=O)[C@H](CCC(=O)O)NC(=O)[C@H](CCSC)NC(=O)[C@H](Cc1c[nH]cn1)NC(=O)[C@H](CCC(=O)O)NC(=O)[C@H](C)NC(=O)[C@H](CCSC)NC(=O)[C@H](CC(=O)O)NC(=O)[C@H](CS)NC(=O)[C@H](CCCNC(=N)N)NC(=O)[C@H](CCCNC(=N)N)NC(=O)[C@H](CCCNC(=N)N)NC(=O)[C@H](CCC(N)=O)NC(=O)[C@H](CCCNC(=N)N)NC(=O)[C@H](CCCNC(=N)N)NC(=O)[C@H](CCCCN)NC(=O)[C@H](CCCCN)NC(=O)[C@H](CCCNC(=N)N)NC(=O)CN)C(N)=O [PW-5, reference compound] | significantly accelerated on days 27-57 after surgery | no significant differences | 928 | 0 | 4.3 | – | – | –
CC[C@H](C)[C@H](NC(=O)[C@H](CO)NC(=O)[C@H](CCC(=O)O)NC(=O)[C@H](Cc1ccc(O)cc1)NC(=O)[C@H](CCC(=O)O)NC(=O)[C@H](CCC(N)=O)NC(=O)[C@H](CO)NC(=O)[C@H](CC(C)C)NC(=O)[C@H](CCCCNC(=O)COCCOCCNC(=O)COCCOCCNC(=O)CC[C@H](NC(=O)CCCCCCCCCCCCCCCCC(=O)O)C(=O)O)NC(=O)[C@H](CC(C)C)NC(=O)[C@H](CO)NC(=O)[C@H](CC(=O)O)NC(=O)[C@H](CC(N)=O)NC(=O)[C@H](C)NC(=O)[C@H](CCCCN)NC(=O)[C@H](CC(C)C)NC(=O)[C@H](CCCNC(=N)N)NC(=O)[C@H](CCC(=O)O)NC(=O)[C@H](CCSC)NC(=O)[C@H](Cc1c[nH]cn1)NC(=O)[C@H](CCC(=O)O)NC(=O)[C@H](C)NC(=O)[C@H](CCSC)NC(=O)[C@H](CC(=O)O)NC(=O)[C@H](CCCNC(=N)N)NC(=O)[C@H](CCCNC(=N)N)NC(=O)[C@H](CCCNC(=N)N)NC(=O)[C@H](CCC(N)=O)NC(=O)[C@H](CCCNC(=N)N)NC(=O)[C@H](CCCNC(=N)N)NC(=O)[C@H](CCCCN)NC(=O)[C@H](CCCCN)NC(=O)[C@H](CCCNC(=N)N)NC(=O)CN)C(N)=O [PW-337] | – | – | 4157725 | – | 95.6 | 56.8 | – | –
CC[C@H](C)[C@H](NC(=O)[C@H](CO)NC(=O)[C@H](CCC(=O)O)NC(=O)[C@H](Cc1ccc(O)cc1)NC(=O)[C@H](CCC(=O)O)NC(=O)[C@H](CCC(N)=O)NC(=O)[C@H](CO)NC(=O)[C@H](CC(C)C)NC(=O)[C@H](CCCCNC(=O)COCCOCCNC(=O)COCCOCCNC(=O)CC[C@H](NC(=O)CCCCCCCCCCCCCCCCC(=O)O)C(=O)O)NC(=O)[C@H](CC(C)C)NC(=O)[C@H](CO)NC(=O)[C@H](CC(=O)O)NC(=O)[C@H](CC(N)=O)NC(=O)[C@H](C)NC(=O)[C@H](CCCCN)NC(=O)[C@H](CC(C)C)NC(=O)[C@H](CCCNC(=N)N)NC(=O)[C@H](CCC(=O)O)NC(=O)[C@@H](NC(=O)[C@H](Cc1c[nH]cn1)NC(=O)[C@H](CCC(=O)O)NC(=O)[C@H](C)NC(=O)[C@H](CCSC)NC(=O)[C@H](CC(=O)O)NC(=O)[C@H](CCCNC(=N)N)NC(=O)[C@H](CCCNC(=N)N)NC(=O)[C@H](CCCNC(=N)N)NC(=O)[C@H](CCC(N)=O)NC(=O)[C@H](CCCNC(=N)N)NC(=O)[C@H](CCCNC(=N)N)NC(=O)[C@H](CCCCN)NC(=O)[C@H](CCCCN)NC(=O)[C@H](CCCNC(=N)N)NC(=O)CN)[C@@H](C)O)C(N)=O [PW-182] (H-GRKKRRQRRRDMAEHTERLKANDSLK([AEEA-AEEA-γGlu-C18 diacid])LSQEYESI-NH2) | – | – | 4927113 | – | 61.6 | 64.4 | – | –
GRKKRRQRRRCDMAEHTERLKANDSLKLSQEYESI-NH2 [PW-6, reference compound] | – | – | 1787 | 0 | 2.2 | – | significant effect of promoting axonal growth | –
PW-259: polypeptide derivative, SEQ ID NO: 50 (G[dR]KKR[dR]Q[dR]RRDMAEHTERLK([AEEA-γGlu-Palmitoyl])ANDSLKLSQEYESI-NH2; N-terminus assumed; SMILES CCCCCCCCCCCCCCCC(=O)N[C@@H](CCC(=O)NCCOCCOCC(=O)NCCCC[C@H](NC(=O)[C@H](CC(C)C)NC(=O)[C@H](CCCNC(=N)N)NC(=O)[C@H](CCC(=O)O)NC(=O)[C@@H](NC(=O)[C@H](Cc1c[nH]cn1)NC(=O)[C@H](CCC(=O)O)NC(=O)[C@H](C)NC(=O)[C@H](CCSC)NC(=O)[C@H](CC(=O)O)NC(=O)[C@H](CCCNC(=N)N)NC(=O)[C@H](CCCNC(=N)N)NC(=O)[C@@H](CCCNC(=N)N)NC(=O)[C@H](CCC(N)=O)NC(=O)[C@@H](CCCNC(=N)N)NC(=O)[C@H](CCCNC(=N)N)NC(=O)[C@H](CCCCN)NC(=O)[C@H](CCCCN)NC(=O)[C@@H](CCCNC(=N)N)NC(=O)CN)[C@@H](C)O)C(=O)N[C@@H](C)C(=O)N[C@@H](CC(N)=O)C(=O)N[C@@H](CC(=O)O)C(=O)N[C@@H](CO)C(=O)N[C@@H](CC(C)C)C(=O)N[C@@H](CCCCN)C(=O)N[C@@H](CC(C)C)C(=O)N[C@@H](CO)C(=O)N[C@@H](CCC(N)=O)C(=O)N[C@@H](CCC(=O)O)C(=O)N[C@@H](Cc1ccc(O)cc1)C(=O)N[C@@H](CCC(=O)O)C(=O)N[C@@H](CO)C(=O)N[C@H](C(N)=O)[C@@H](C)CC)C(=O)O) | – | – | – | – | – | – | significant effect of promoting axonal growth | no significant difference
